Assay results reported in US20230416221A1, “DIHYDROISOQUINOLINONE AND ISOINDOLINONE DERIVATIVES AND USES THEREOF” (HEFEI INSTITUTES OF PHYSICAL SCIENCE, CHINESE ACADEMY OF …, priority 2020, published 2023).
Read-outs that look alike come from different tables or passages of the source.

Experiments:
[1] = system: human liver cancer cell line HepG2; test: Growth of cancer cells, Cell Titer-Glo GI50, HepG2; type: cell-based; conditions: incubated for 72 hours
[2] = system: acute myeloid leukemia cell line MOLM13; test: Growth of cancer cells, Cell Titer-Glo GI50, MOLM13; type: cell-based; conditions: incubated for 72 hours, Cell Titer-Glo
[3] = system: acute myeloid leukemia cell line MOLM14; test: Growth of cancer cells, Cell Titer-Glo GI50, MOLM14; type: cell-based; conditions: incubated for 72 hours, Cell Titer-Glo, read-out: GI50 MOLM 14
[4] = system: MOLM13 drug resistant strain MOLM13 BR1; test: Growth of drug resistant strain MOLM13 BR1, Cell Titer-Glo GI50; type: cell-based; conditions: Homo sapiens, MOLM-13, BAY1251152-resistant MOLM13 strain, 72 hours
[5] = system: HepG2 drug resistant strain HepG2 CDK9 KI C20-1; test: Growth of drug resistant strain HepG2 KI C20-1, Cell Titer-Glo GI50; type: cell-based, human; conditions: for GI50 HepG2 CDK9 KI C20-1: CDK9 resistant mutation knockin HepG2 monoclone, 72 hours, Cell Titer-Glo
[6] = system: acute myeloid leukemia cell line MV4-11; test: Growth of cancer cells, Cell Titer-Glo GI50, MV4-11; conditions: read-out: GI50 MV4-11
[7] = system: human colorectal cancer cell HCT116; test: Growth of cancer cells, Cell Titer-Glo GI50, HCT116; type: cell-based
[8] = system: human chronic myeloid leukemia cell K562; test: Growth of cancer cells, Cell Titer-Glo GI50, K562; type: cell-based; conditions: incubated for 72 hours, Cell Titer-Glo, read-out: GI50 K562
[9] = system: human colorectal cancer cell DLD1; test: Growth of cancer cells, Cell Titer-Glo GI50, DLD1; type: cell-based
[10] = molecular target: CDK9-L156F mut/CyclinT1 mutant protein (Homo sapiens (Human), UniProt P50750, L156F); test: Enzyme activity assay of CDK9 mutant protein inhibition in vitro, CDK9-L156F mut/CyclinT1
[11] = system: histiocytic lymphoma U-937; test: Growth of cancer cells, Cell Titer-Glo GI50, U937; type: cell-based; conditions: Homo sapiens, U-937; incubated for 72 hours, Cell Titer-Glo; read-out: GI50 U937
[12] = system: acute myeloid leukemia cell line OCI-AML-3; test: Growth of cancer cells, Cell Titer-Glo GI50, OCI-AML-3; type: cell-based; conditions: Homo sapiens; incubated for 72 hours, Cell Titer-Glo; read-out: GI50 AML3
[13] = system: human ovarian granulosa tumor cell COV434; test: Growth of cancer cells, Cell Titer-Glo GI50, COV434; type: cell-based; conditions: read-out: GI50 COV434
CDK9 = CDK9 (Homo sapiens (Human), UniProt P50750); test: Binding activity of compound and CDK9, split luciferase system (C37-CL / CDK9-NL) in HEK-293T cells; type: cell-based
Text: The plasmid of split luciferase system was constructed by molecular cloning technology. The N-terminal domain (NLuc) and C-terminal domain (CLuc) of luciferase were respectively cloned and inserted into the vector PCDNA3 to construct NLuc-PCDNA3 and CLuc-PCDNA3 vectors, and the polyclonal sites were reserved at both ends of the sequence. Then CDC37 and CDK9 were cloned into the corresponding vectors to construct C37-CL and CDK9-NL vectors. C37-CL plasmid sequence is shown in SEQ ID NO. 1. CDK9-NL plasmid sequence is shown in SEQ ID NO. 2.
The mixed transfection complex was added to the 10 cm cell culture dish and cultured at 37° C. and 5% CO2 for 24 hours. […] After counting, the transfected cells were placed in a 96-well white Corning cell culture plate (purchased from Corning, U.S.) with 100 μL, 5000 cells/well. After 12 hours, the medium was removed from the 96-well plate and 100 μL culture medium containing corresponding concentration of the testing compound was added, which was cultured continuously for 12 hours. After 12 hours, 20 μL Luciferase-Glo (purchased from Promega, U.S.) testing reagent was added to each well. After mixing, the […] value was detected using a microplate reader.

CDK9/CyclinT1 protein = CDK9/CyclinT1 protein (Homo sapiens (Human), UniProt P50750); test: Enzyme activity assay of CDK9 protein inhibition in vitro, CDK9/CyclinT1
lymphoma cell WSU-DLCL2 [14] = test: cells; conditions: Homo sapiens, WSUDLCL2, 72 h, read-out: GI50 WSU-DLCL2
[15] = system: cervical cancer cell HeLa; test: cells; conditions: Homo sapiens, 72 h, read-out: GI50 HeLa
[16] = system: gastrointestinal stromal tumor GIST-T1; test: cells; conditions: Homo sapiens, GISTT1, 72 h, read-out: GI50 GIST-T1
lymphoma cell WSU-DLCL2 [17] = conditions: read-out: GI50 WSU-DLCL2; incubated for 72 hours, Cell Titer-Glo
[18] = system: cervical cancer cell HeLa; conditions: read-out: GI50 HeLa; incubated for 72 hours, Cell Titer-Glo
[19] = system: gastrointestinal stromal tumor GIST-T1; conditions: read-out: GI50 GIST-T1; incubated for 72 hours, Cell Titer-Glo
[20] = Homo sapiens, MOLM-13, Table 2, read-out: GI50 MOLM13
[21] = Homo sapiens, HCT-116, incubated for 72 hours
[22] = Homo sapiens, DLD-1, incubated for 72 hours
[23] = Homo sapiens, MOLM-13, Table 1, read-out: GI50 MOLM 13
[24] = incubated for 72 hours, Cell Titer-Glo

Chain of CDK9 (P50750 whole entry, the tested form may be a part): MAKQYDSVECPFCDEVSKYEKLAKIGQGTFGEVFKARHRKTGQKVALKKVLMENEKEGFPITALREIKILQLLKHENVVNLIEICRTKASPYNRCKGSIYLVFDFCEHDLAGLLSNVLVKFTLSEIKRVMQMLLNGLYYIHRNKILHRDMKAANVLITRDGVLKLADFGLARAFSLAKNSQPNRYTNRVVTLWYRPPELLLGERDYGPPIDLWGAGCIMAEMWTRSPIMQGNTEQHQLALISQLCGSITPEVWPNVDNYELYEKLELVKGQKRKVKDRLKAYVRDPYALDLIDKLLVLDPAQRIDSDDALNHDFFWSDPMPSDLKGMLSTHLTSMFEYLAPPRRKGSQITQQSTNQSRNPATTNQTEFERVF
Chain of CDK9/CyclinT1 protein (P50750 whole entry): as the sequence (P50750 whole entry, the tested form may be a part) above
Chain of CDK9/CyclinT1 protein (O60563 whole entry partner): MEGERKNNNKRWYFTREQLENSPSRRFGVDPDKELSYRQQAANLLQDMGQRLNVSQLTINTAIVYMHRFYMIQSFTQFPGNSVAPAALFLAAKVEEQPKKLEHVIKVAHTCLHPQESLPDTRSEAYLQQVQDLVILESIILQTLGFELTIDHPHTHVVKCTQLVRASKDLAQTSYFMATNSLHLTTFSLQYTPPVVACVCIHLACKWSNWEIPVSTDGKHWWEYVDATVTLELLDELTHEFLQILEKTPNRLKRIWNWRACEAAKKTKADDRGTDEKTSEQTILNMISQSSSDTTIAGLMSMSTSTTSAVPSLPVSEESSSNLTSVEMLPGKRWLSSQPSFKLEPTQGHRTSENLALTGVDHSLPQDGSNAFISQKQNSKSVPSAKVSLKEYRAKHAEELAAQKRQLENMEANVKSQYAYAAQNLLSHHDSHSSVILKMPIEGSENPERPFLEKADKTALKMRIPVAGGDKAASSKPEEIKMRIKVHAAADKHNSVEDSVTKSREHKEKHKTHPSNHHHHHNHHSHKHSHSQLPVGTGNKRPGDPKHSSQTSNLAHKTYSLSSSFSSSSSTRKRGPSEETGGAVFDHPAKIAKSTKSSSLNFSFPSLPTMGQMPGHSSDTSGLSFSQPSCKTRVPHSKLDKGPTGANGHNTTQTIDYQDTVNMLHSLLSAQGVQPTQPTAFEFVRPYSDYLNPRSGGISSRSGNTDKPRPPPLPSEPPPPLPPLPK
Chain of CDK9-L156F mut/CyclinT1 mutant protein (P50750 whole entry L156F): as the sequence (P50750 whole entry, the tested form may be a part) above, with L156F counted along it
Chain of CDK9-L156F mut/CyclinT1 mutant protein (O60563 whole entry partner): as the sequence (O60563 whole entry partner) above

GI50 [2, 20]	SMILES	GI50 ([1]; Table 3)	GI50 ([3]; Homo sapiens, MOLM-14)	GI50 [4]	GI50 HepG2 CDK9 KI C20-1 [5]	GI50 ([6]; Homo sapiens, MV4-11, 72 h)	GI50 ([8]; Homo sapiens, K562)	GI50 [2, 23]	further results
7.08 nM	COCCNC1CCC(Nc2nccc(-c3ccc4c(c3)C(C(C)C)(C(C)C)CNC4=O)n2)CC1 (stereo not drawn) [Compound 14, 4,4-diisopropyl-6-(2-(((1r,4r)-4-((2-methoxyethyl)amino)cyclohexyl)amino)pyrimidin-4-yl)-3,4-dihydroisoquinolin-1(2H)-one]	–	–	8.26 nM	–	17 nM	26 nM	–	GI50 ([1]; Table 1): 23 nM; GI50 [7, 21]: 12 nM; GI50 [9, 22]: 63 nM
–	COCCN[C@H]1CC[C@H](Nc2nccc(-c3ccc4c(c3)C(C(C)C)(C(C)C)CNC4=O)n2)CC1 [Compound 14, 4,4-diisopropyl-6-(2-(((1r,4r)-4-((2-methoxyethyl)amino)cyclohexyl)amino)pyrimidin-4-yl)-3,4-dihydroisoquinolin-1(2H)-one]	–	–	–	–	–	–	–	IC50 [10]: 98.6 nM
–	CC1(C)CNC(=O)c2ccc(-c3ccnc(Nc4cccc(N5CCCNCC5)c4)n3)cc21 [Compound 35, 6-(2-((3-(1,4-homopiperazin-1-yl)phenyl)amino)pyrimidin-4-yl)-4,4-dimethyl-3,4-dihydroisoquinolin-1(2H)-one]	87.4 nM	–	1.69 nM	138.5 nM	< 1 nM	25 nM	< 1 nM	GI50 [11]: 23 nM; GI50 [12]: 33 nM; GI50 ([13]; Homo sapiens, COV434, 72 h): < 1 nM; IC50 (CDK9): 300 nM
–	CN1CCN(c2cccc(Nc3nccc(-c4ccc5c(c4)C(C)(C)CNC5=O)n3)c2)CC1 [Compound 37, 4,4-dimethyl-6-(2-((3-(4-methylpiperazin-1-yl)phenyl)amino)pyrimidin-4-yl)-3,4-dihydroisoquinolin-1(2H)-one]	27.8 nM	< 1 nM	3.05 nM	74.8 nM	< 1 nM	31 nM	< 1 nM	IC50 (CDK9): 49 nM
0.845 nM	Cc1ccc(Nc2nccc(-c3ccc4c(c3)C(C)(C)CNC4=O)n2)cc1N1CCN(C)CC1 [Compound 82, 4,4-methyl-6-(2-((4-methyl-3-(4-methylpiperazin-1-yl)phenyl)amino)pyrimidin-4-yl)-dihydroisoquinolin-1(2H)-one]	–	0.8 nM	1.71 nM	–	–	26 nM	< 1 nM	IC50 (CDK9/CyclinT1 protein): 2.6 nM; IC50 [10]: 105 nM
–	CCc1cnn2c(NCc3ccc[n+]([O-])c3)cc(N3CCCC[C@H]3CCO)nc12 [Dinaciclib, reference compound]	–	18 nM	–	–	22 nM	53 nM	11 nM	GI50 [11]: 5 nM; GI50 [12]: 4 nM; GI50 [7, 21]: 15 nM; GI50 ([13]; Homo sapiens, COV434, 72 h): 8 nM; GI50 [9, 22]: 30 nM; GI50 (lymphoma cell WSU-DLCL2 [14]): 13 nM; GI50 [15]: 16.5 nM; GI50 [16]: 15 nM
–	COC[C@@H](C)NC1CCC(Nc2cc(-c3csc(NCC4(C#N)CCOCC4)n3)c(Cl)cn2)CC1 (stereo partly drawn) [JSH-009, reference compound]	–	–	–	–	–	–	–	GI50 ([7]; incubated for 72 hours): 23 nM; GI50 [13, 24]: 30 nM; GI50 ([2]; Table 1, read-out: GI50 MOLM 13): 4 nM; GI50 [3]: 4 nM; GI50 [8]: 9 nM; GI50 ([9]; incubated for 72 hours): 106 nM; GI50 (lymphoma cell WSU-DLCL2 [17]): 16 nM; GI50 [18]: 18 nM; GI50 [19]: 34 nM; GI50 [6, 24]: 6 nM; IC50 (CDK9/CyclinT1 protein; read-out: CDK9/CyclinT1 Protein activity (IC50)): 29 nM

SMILES	GI50 [2, 20]	GI50 ([1]; Table 3)	GI50 ([3]; Homo sapiens, MOLM-14)	GI50 [4]	GI50 HepG2 CDK9 KI C20-1 [5]	GI50 ([6]; Homo sapiens, MV4-11, 72 h)	GI50 ([8]; Homo sapiens, K562)	GI50 [2, 23]	further results
COc1cc(F)ccc1-c1cc(Nc2cc(CS(C)(=N)=O)ccn2)ncc1F (stereo not drawn) [BAY1251152, reference compound]	38 nM	36.1 nM	40 nM	1190 nM	>1000 nM	27 nM	–	–	drug resistance on the drug resistant strain of liver cancer cell HepG2 ([5]; result in words): obvious drug resistance
